Columns and labels:
[1] = system: Culex pipiens adults; assay: Biological activity on Culex pipiens (Diptera): adults; assay type: in vivo; conditions: 0.2 g/m^2, 24 hours after beginning of treatment, read-out: percentage of reduction of the infestation (mortality percentage), Culex ad.
Experimental: Biological activity on Culex pipiens (Diptera): adults
Whatman n°1 paper rectangles were treated uniformly with an acetonic solution of the products under examination. After evaporation of the solvent, each treated paper rectangle was used to line the inside wall of a perspex cylinder (model OMS). The paper-lined perspex cylinder was then closed with a net after having introduced into it 2-3 days old adult females. After one hour from the start of the contact, the insects were transferred into a similar cylinder likewise lined with untreated paper, and were fed with a sugary solution.
The mortality percentage (untreated insects=0) was determined 24 hours after the beginning of the treatment.

[2] = system: Musca domestica; assay: Biological activity on Musca domestica (Diptera), topical application; assay type: in vivo; conditions: 0.5 γ/ins, 24 hours after treatment
Experimental: Biological activity on Musca domestica (Diptera)
4-days old adults were treated, by topical application by microsyringe, with an acetonic solution of the products under examination.
The mortality percentage (insects treated with acetone only=0) was determined 24 hours after the treatment.

[3] = system: Culex pipiens larvae; assay: Biological activity on Culex pipiens (diptera) larvae; assay type: in vivo; conditions: 24 hours after treatment, read-out: percentage of reduction of the infestation (percentage death rate), Culex larvae
Experimental: Biological activity on Culex pipiens (diptera) larvae
Into glasses containing an aqueous dispersion of the products under examination, were introduced third and fourth age mosquito larvae. The percentage death rate of the larvae (glasses containing pure water=0) was determined 24 hours after treatment.

[4] = system: Pieris brassicae; assay: Biological activity on Pieris brassicae (Lepitoptera), 5-day old larvae; assay type: in vivo; conditions: 0.1 permill.; 48 hours after treatment
Experimental: Biological activity on Pieris brassicae (Lepitoptera)
Cut cauliflower leaves were sprinkled with an aqueous dispersion of the products under examination. After drying, the leaves were infested with 5-day old larvae. The percentage death rate of the larvae (untreated leaves=0) was determined 48 hours after treatment.

[5] = Toxicity by os on rats; conditions: rat, in vivo, po
[6] = system: Meloidogyne incognita; assay: Biological activity on Meloidogyne incognita (Nematoda); assay type: in vivo; conditions: 20 ppm; 21 days after transplanting
Experimental: Biological activity on Meloidogyne incognita (Nematoda)
Aliquot parts of a 1:1 mixture of field soil and sand, infested by Nematoda larvae and eggs, were treated by uniformly mixing same with an aqueous dispersion of the products under examination. The soil was then distributed into plastic pots, and after 5 days into each pot there were transplanted 5 tomato plants about 20 cm high. The survey of the results was carried out 21 days after the transplanting, by observing the roots of the plants extracted from the soil in order to ascertain the degree of infestation by counting the galls that have formed on them. The nematocide activity was expressed as a percentage of reduction of the infestation with respect to the witness plant (small plants transplanted into untreated soil, activity=0).

[7] = system: Blatta orientalis; assay: Biological activity on Blatta orientalis (Ortoptera); assay type: in vivo; conditions: 0.1 g/m^2, 48 hours after start of treatment, read-out: percentage of reduction of the infestation (percentage mortality), Blatta
Experimental: Biological activity on Blatta orientalis (Ortoptera)
The bottom and side walls of glass beakers were treated uniformly with an acetonic solution of the products under examination. After evaporation of the solvent in each beaker, into the same were then introduced ten, 80-100 days old neanides, whereafter they were closed with a lid of metal netting. After 24 hours from the beginning of the treatment, the insects were transferred into untreated glass beakers, and suitably nourished. The percentage mortality (untreated insects=0) was determined 48 hours after the start of the treatment.

[8] = system: Leptinatarsa decomlineata; assay: Biological activity on Leptinatarsa decomlineata (Coledptera), 4-day old larvae; assay type: in vivo; conditions: 0.1 permill.; 48 hours after treatment
Experimental: Biological activity on Leptinatarsa decomlineata (Coledptera)
Small, pot-grown potato-plants were infested with 4-day old larvae, and then were sprinkled with an aqueous dispersion of the products under examination. The percentage death rate (untreated plants=0) was determined 48 hours after treatment.

[9] = system: Tetranychus urticae; assay: Biological activity on Tetranychus urticae (Acari) adults; assay type: in vivo; conditions: 0.01 permill.; 24 hours after treatment
Experimental: Biological Activity on Tetranychus urticae (Acari) adults
Small bean leaf discs were infected with adult acari and were then sprinkled with an aqueous dispersion of the products under examination. The percentage of mortality was determined 24 hours after the treatment (untreated discs, mortality=0).

[10] = system: Spodoptera littoralis; assay: Biological activity on Spodoptera littoralis (Lepidoptera), 5-days old larvae; assay type: in vivo; conditions: 0.1 permill.; 48 hours after treatment
Experimental: Biological activity on Spodoptera littoralis (Lepidoptera)
Cut tobacco leaves were sprinkled with an aqueous dispersion of the products under examination. After drying, the leaves were infested with 5-days old larvae. The percentage mortality of the larvae was determined 48 hours after treatment (untreated leaves, mortality=0).

[11] = system: Macrosiphum euphorbiae; assay: Biological activity on Macrosiphum euphorbiae (aphides); assay type: in vivo; parameters: tested at 0.01 permill; conditions: 0.01 permill.; 24 hours after treatment
Experimental: Biological activity on Macrosiphum euphorbiae (aphides)
Small potato plants grown in pots were infested with adult female aphides and, after several hours, were sprinkled with an aqueous dispersion of the products under examination.
The percentage death rate was determined 24 hours after treatment (untreated plants=0).

[12] = system: insects, acari and nematoda; assay: Pesticidal activity against insects, acari and nematoda (general statements); assay type: in vivo
Experimental: The pesticidal activity, verified by the methods described below in Example 12, is recorded below in the following Table 3 in comparison with that of "Pyrazothion".

SMILES | mortality at 0.2 g/m2 [1] [%] | percentage of reduction of the infestation (mortality percentage), Musca d. [2] [%] | mortality at 0.2 ppm [3] [%] | percentage of reduction of the infestation (percentage death rate of larvae), Pieris B [4] [%] | LD50 [5] [mg/kg] | percentage of reduction of the infestation, Meloidog. I. [6] [%] | mortality at 0.1 g/m2 [7] [%] | percentage of reduction of the infestation (percentage death rate), Leptinot D. [8] [%] | percentage of reduction of the infestation (percentage of mortality), Tetran U. [9] [%] | percentage of reduction of the infestation (percentage mortality of larvae), Spodoptera L [10] [%] | percentage of reduction of the infestation (percentage death rate), Macrosiph. E. [11] [%] | activity against Spodoptera, Culex, Musca, Leptinotarsa, Meloidogine incognita ([12]; Spodoptera, Culex, Musca, Leptinotarsa, Meloidogine incognita) | activity against insects, acari and nematoda ([12]; in vivo)
CCOP(=S)(OCC)Oc1cc(Cl)nn1C [Compound 13] | 100 | 100 | 100 | 100 | 25 | 100 | 100 | 100 | 100 | 100 | 99 |  | 
COP(=S)(OC)Oc1cc(Cl)nn1-c1ccccc1 [Compound 1, O,O-dimethyl-0-(1-phenyl-3-chloropyrazol-5-yl) thiophosphate] | 100 | 100 | 100 | 100 | 400 | 80 | 100 | 100 | 60 | 100 | 90 |  | 
CCOP(=S)(OCC)Oc1cc(C)[nH]n1 [Pyrazothion, diethyl-thiophosphoric ester of 3(5)-methyl-5(3)-hydroxypyrazole, reference compound] | 0 | 0 | 0 | 70 | 36 | 0 | 20 | 0 | 90 | 0 | 60 | ineffective | does not shown activity
COP(=S)(OC)Oc1cc(Cl)nn1C [Compound 14] | 100 | 100 | 100 | 100 | 560 | 41 | 100 | 37 | 100 | 82 | 96 |  | 
CCOP(=S)(OC)Oc1cc(Cl)nn1C (stereo not shown) [Compound 23] | 100 | 100 | 100 | 100 | 487 | 100 | 100 | 100 | 100 | 100 | 92 |  | 
CCOP(=S)(OC)Oc1cc(Cl)nn1-c1ccccc1 (stereo not shown) [Compound 37] | 100 | 100 | 100 | 100 | 320 | 47 | 100 | 100 | 0 | 100 | 48 |  | 
CCOP(=S)(OCC)Oc1cc(C=C(Cl)Cl)nn1C [Compound 6] | 76 | 100 | 100 | 100 | 175 | 95 | 100 | 100 | 100 | 100 | 100 |  | 

— US4459294A, “Phosphoric and thiophosphoric esters of 5(3)-hydroxypyrazoles exerting an insecticidal action” (priority 1977, dated 1984)
